Key:
[1] = molecular target: CalA3 (Streptomyces chartreusis NRRL 3882); assay: cryo-EM structure; purified CalA3 at ~4 mg/mL in 50 mM Tricine pH 8.0 with 1 mM 3-HAA and SNAC-N1 (further samples at ~4.5 mg/mL with amidation or hydrolysis product and 3-HAA); Titan Krios 300 kV, K3 detector; homodimer
[2] = molecular target: T1, CalA3 (Streptomyces chartreusis, UniProt A0A2N9BJK0); assay: cryo-EM structure, […] Å; assay type: binding; settings: KS substrate tunnel, chains A and B; specimen also contained 3-HAA; PDB id assigned by order of listing
T1 construct: gene SCNRRL3882_6975; full length, gene 5178 bp, C-terminal 6xHis tag (pET28a), E. coli BAP1; about 180 kDa per chain, homodimer about 360 kDa; domains DD-KS-LD-AT-DH-psiKR/KR, no ACP
T1 sequence (A0A2N9BJK0 1-1727): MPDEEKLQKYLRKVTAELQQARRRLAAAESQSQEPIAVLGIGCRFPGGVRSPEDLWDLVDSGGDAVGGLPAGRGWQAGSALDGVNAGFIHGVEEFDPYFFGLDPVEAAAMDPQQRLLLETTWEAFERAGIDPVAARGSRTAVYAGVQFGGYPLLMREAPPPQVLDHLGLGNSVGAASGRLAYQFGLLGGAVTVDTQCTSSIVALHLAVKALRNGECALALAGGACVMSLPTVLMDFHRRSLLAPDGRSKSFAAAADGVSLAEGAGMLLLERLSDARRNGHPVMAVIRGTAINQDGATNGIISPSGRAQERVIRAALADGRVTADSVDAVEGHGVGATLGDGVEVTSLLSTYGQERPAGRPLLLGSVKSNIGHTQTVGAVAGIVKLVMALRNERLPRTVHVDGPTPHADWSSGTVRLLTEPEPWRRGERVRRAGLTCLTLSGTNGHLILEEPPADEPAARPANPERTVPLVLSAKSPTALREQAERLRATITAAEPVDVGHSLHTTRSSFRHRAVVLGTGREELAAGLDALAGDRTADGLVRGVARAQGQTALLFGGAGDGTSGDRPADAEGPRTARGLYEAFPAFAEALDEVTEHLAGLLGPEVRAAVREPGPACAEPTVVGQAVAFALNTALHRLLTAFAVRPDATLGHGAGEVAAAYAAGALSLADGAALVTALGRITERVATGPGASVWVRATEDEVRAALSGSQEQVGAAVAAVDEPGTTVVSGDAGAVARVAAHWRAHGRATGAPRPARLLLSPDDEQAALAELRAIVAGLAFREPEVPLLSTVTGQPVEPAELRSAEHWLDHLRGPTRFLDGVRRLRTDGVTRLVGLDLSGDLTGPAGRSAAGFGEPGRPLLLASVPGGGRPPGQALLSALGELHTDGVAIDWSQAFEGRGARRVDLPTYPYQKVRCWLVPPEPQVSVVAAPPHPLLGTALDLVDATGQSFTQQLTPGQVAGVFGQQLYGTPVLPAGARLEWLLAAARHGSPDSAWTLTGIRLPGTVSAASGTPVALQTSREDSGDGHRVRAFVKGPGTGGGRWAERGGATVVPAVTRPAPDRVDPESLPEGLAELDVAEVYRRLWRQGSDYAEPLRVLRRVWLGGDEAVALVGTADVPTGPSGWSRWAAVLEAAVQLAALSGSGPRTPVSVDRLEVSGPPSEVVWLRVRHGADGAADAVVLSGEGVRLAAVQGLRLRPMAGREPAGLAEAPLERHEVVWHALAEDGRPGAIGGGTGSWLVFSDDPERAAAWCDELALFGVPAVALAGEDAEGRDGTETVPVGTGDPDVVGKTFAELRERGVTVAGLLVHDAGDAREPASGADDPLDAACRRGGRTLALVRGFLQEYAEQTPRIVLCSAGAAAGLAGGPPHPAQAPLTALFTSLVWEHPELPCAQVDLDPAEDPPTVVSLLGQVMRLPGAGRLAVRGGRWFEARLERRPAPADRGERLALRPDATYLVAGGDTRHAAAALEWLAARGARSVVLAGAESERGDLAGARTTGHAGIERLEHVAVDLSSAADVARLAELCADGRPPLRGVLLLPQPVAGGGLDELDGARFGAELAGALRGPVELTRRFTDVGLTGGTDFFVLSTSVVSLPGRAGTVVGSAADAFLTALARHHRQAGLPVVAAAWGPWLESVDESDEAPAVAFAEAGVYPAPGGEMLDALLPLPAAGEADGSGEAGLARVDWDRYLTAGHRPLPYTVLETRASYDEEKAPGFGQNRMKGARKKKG

[3] = molecular target: T1, CalA3; assay: HPLC turnover assay at […] nm, products confirmed by LC-HRMS and NMR; assay type: biochemical; settings: 5 µM CalA3, 0.15 mM SNAC-N1, 0.5 mM 3-HAA, 25 mM Tricine pH 7.5, 30 °C, 13 h; amidation and hydrolysis
[4] = molecular target: T1, CalA3; assay: cryo-EM structure, […] Å; assay type: binding; settings: KS substrate tunnel, chain A only; specimen also contained 3-HAA; PDB id assigned by order of listing

## CalA3 (enzyme)
[1]
  stoichiometry N: 2

## O=C(CCCCCCCCCC(=O)c1ccc[nH]1)Nc1c(O)cccc1C(=O)O [compound 3, amidation product]
[2]
  cryo-EM structure, 3.84 Å: the amidation products were captured in the KS domains of both chain A and B

## CC(=O)NCCSC(=O)CCCCCCCCCC(=O)c1ccc[nH]1 [compound 1, SNAC-N1]
[3]
  HPLC turnover assay at 290 nm, products confirmed by LC-HRMS and NMR: SNAC-N1 and 3-HAA were incubated with CalA3, and a total of three peaks were detected

## O=C(O)CCCCCCCCCC(=O)c1ccc[nH]1 [compound 2, 11-oxo-11-(pyrrol-2-yl) undecanoic acid]
[4]
  cryo-EM structure, 3.97 Å: the hydrolysis product was captured only in the KS domain of chain A

From paper PMC10006239, “C–N bond formation by a polyketide synthase” (Nature Communications, 2023)
